Entries after “also recorded” stand apart in the source; their conditions may differ. Like-named read-outs stand apart in the source and are kept apart here.
Columns and labels:
[1] = tested on: T1, Plasmodium falciparum Dd2 asexual blood stage parasites; experiment: microbe, parasite or virus in culture; parameters: species or system P. falciparum Dd2 in human erythrocytes; SYBR Green-I proliferation assay, P. falciparum Dd2 asexual blood stages, growth inhibition; conditions: DD2, Erythrocyte, 72 h, SYBR Green-I
T1 construct: Dd2 line, asexual blood stage
Experimental: The P. falciparum parasite Dd2 line was cultured in vitro using standard conditions63. Briefly, parasites were maintained in 2% human O+ erythrocytes (Interstate Blood Bank, Memphis, TN) in RPMI-1640 medium (Life Technologies, Grand Island, NY) supplemented with 0.5% Albumax II (Life Technologies), 2 mM l-glutamine, 50 mg/L hypoxanthine, 25 mM HEPES, 0.225% NaHCO3, 24 mM sodium bicarbonate, and 10 μg/ml gentamycin. Tissue culture flasks and assay plates were incubated at 37 °C under a gas mixture of 5% CO2, 5% O2 and 90% N2. Methods for the SYBR Green-I qHTS, calculation of AC50 (50% of the normalized compound response relative to the maximum response), and definition of curve classes have been described30,64–66. qHTS assays were performed in a single replicate with a 7- to 11-point dose response format, and follow-up screens with 3–11 independent 11-point response assays. Significant differences were assessed using two-sided Student’s t-tests. All HTS assays were stopped and read at 72 h. Percent response values represent relative growth as judged by SYBR Green-I fluorescence intensity values normalized to controls. […] […]

[2] = tested on: sporozoites / hepatocytes; conditions: cited from earlier work
[3] = tested on: P. falciparum Dd2 (clone B2) asexual blood stage parasites; experiment: P. falciparum Dd2 asexual blood stage SYBR Green-I 72 h proliferation assay (qHTS); assay type: cell-based, Plasmodium falciparum
[4] = tested on: P. falciparum Dd2 Cytb G131S; experiment: SYBR Green ABS proliferation assay, NCGC00374598 selected clone C11; assay type: cell-based, Plasmodium falciparum; conditions: for AC50: Plasmodium falciparum
Outline: (§1)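 Drug-selected Dd2 clones bearing the cytochrome b mutation were cultured at 37 °C under 5% CO2, 5% O2, 90% N2. Growth was read at 72 h by SYBR Green-I fluorescence, normalized to controls as percent response.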

[5] = tested on: P. falciparum Dd2 Cytb V259L; experiment: SYBR Green ABS proliferation assay, NCGC00473217 selected clone F06; assay type: cell-based, Plasmodium falciparum; conditions: Plasmodium falciparum
Outline: as §1

[6] = tested on: P. falciparum Dd2 Cytb A122D; experiment: SYBR Green ABS proliferation assay, NCGC00473217 selected clone F12; assay type: cell-based, Plasmodium falciparum; conditions: Plasmodium falciparum
Outline: as §1

[7] = tested on: P. falciparum Dd2 Cytb F123L; experiment: SYBR Green ABS proliferation assay, NCGC00473217 selected clone G08; assay type: cell-based, Plasmodium falciparum
Outline: as §1

[8] = tested on: P. berghei-ANKA-GFP-LucCON liver stage parasites in HepG2-A16-CD81EGFP cells; experiment: P. berghei liver stage Pb-Luc assay, Method 1 (UCSD, 1536-well); assay type: cell-based, Plasmodium berghei; conditions: Plasmodium berghei; for AC50: UCSD, read-out: liver stage AC50 (Method 1)
[9] = tested on: luciferase-expressing P. berghei liver stage parasites in HepG2 cells; experiment: Inhibition of liver-stage development assay (ILSDA), Method 2 (WRAIR, 96-well); assay type: cell-based, Plasmodium berghei; conditions: for AC50: Plasmodium berghei
in vitro [10] = conditions: human; for AC50 at 48 h: HepG2 cells, HepG2 AC50 (mammalian cellular toxicity), 48 h compound exposure
HepG2 cells = experiment: HepG2 mammalian toxicity, CellTiter-Glo, 48 h; conditions: 48 h compound exposure
in vitro [11] = conditions: for half-life: rat
Experimental: (§2) Pharmacokinetic modeling experiments, parallel artificial membrane permeability assay (PAMPA), solubility, and rat liver microsome stability assessment were performed on all synthetic compounds, as previously described[73]–[75].

[12] = tested on: P. falciparum Dd2-B2 parasites; experiment: In vitro resistance selection under constant drug pressure; assay type: cell-based, Plasmodium falciparum; conditions: for Recrudescence under pressure: 2 × 10^9 parasites, 5 × AC50 (NCGC00473217) or 3 × AC50 (NCGC00374598); for AC50 increase of selected clones: clones from selections with the same compound
Experimental: Recently cloned P. falciparum Dd2-B2 parasites, cultured in duplicate flasks each harboring an inoculum of 2 × 10^9 parasites, were subjected to constant drug pressure from NCGC00473217 at 5 × AC50 or NCGC00374598 at 3 × AC50. […] Clones were then obtained by limiting dilution and three to four clones from each flask were expanded for profiling and sequencing.
Fresh uninfected RBCs (0.5% hematocrit) were added on day 7 and media was changed every other day. […] Resistant parasites were maintained under drug media at a volume of 50 mL until a high parasitemia (> 5%) was achieved. Aliquots of the bulk resistant cultures were frozen in cryovials before cloning by limiting dilution in 96-well plates (seeded at 0.25 or 0.5 parasites/well)[70]. After 3 weeks of cloning, we screened for positive wells by flow cytometry with SYBR Green-stained cells. […] Parasites were harvested by saponin lysis at the trophozoite stage and genomic DNA was extracted using the QIAamp DNA Blood Midi Kit (Qiagen, Germantown, MD)[71].

Aqueous solubility = assay type: physicochemical; conditions: for solubility: aqueous media
Experimental: as §2; call rule not given here

[13] = Parallel artificial membrane permeability assay (PAMPA); assay type: in vitro ADME; conditions: for PAMPA pH7.4: pH 7.4
Experimental: as §2

in vitro [14] = conditions: human, HepG2-A16-CD81EGFP cells, uninfected
[15] = Plasmodium falciparum, DD2, 72 h, SYBR Green 72 h, WT Dd2-B2, read-out: AC50 Log[M] ± SD, Dd2-B2 (parental line) (converted)
[16] = Plasmodium falciparum, DD2, 72 h, SYBR Green 72 h, approximate value in μM, read-out: AC50 [μM], Dd2-B2 (parental line) (converted)
[17] = DD2, NCGC00374598 selected clone, read-out: AC50 Log[M] ± SD, Cytb G131S (converted)
[18] = DD2, Suppl Table 6, read-out: AC50 (mM), Dd2 Cytb G131S
[19] = DD2, NCGC00473217 selected clone, read-out: AC50 Log[M] ± SD, Cytb V259L (converted)
[20] = DD2, Suppl Table 6, read-out: AC50 (mM), Dd2 Cytb V259L
[21] = DD2, NCGC00473217 selected clone, read-out: AC50 Log[M] ± SD, Cytb A122D (converted)
[22] = DD2, Suppl Table 6, read-out: AC50 (mM), Dd2 Cytb A122D
[23] = Plasmodium falciparum, DD2, NCGC00473217 selected clone, read-out: AC50 Log[M] ± SD, Cytb F123L (converted)
[24] = Plasmodium falciparum, DD2, Suppl Table 6, read-out: AC50 (mM), Dd2 Cytb F123L
[25] = DD2, NCGC00374598 selected clone C11, read-out: AC50 [μM], Cytb G131S (converted)
[26] = DD2, NCGC00473217 selected clone F06, read-out: AC50 [μM], Cytb V259L (converted)
[27] = DD2, NCGC00473217 selected clone F12, read-out: AC50 [μM], Cytb A122D (converted)
[28] = Plasmodium falciparum, DD2, NCGC00473217 selected clone G08, highest concentration 29 µM, read-out: AC50 [μM], Cytb F123L (converted)
[29] = HepG2, 48 h, 48 h, firefly luciferase reporter P. berghei line, read-out: ILSDA AC50
[30] = SYBR Green 72 h, approximate value in μM
[31] = HepG2, 48 h, 48 h, read-out: ILSDA AC50 (Method 2)

Row | Structure (SMILES) | AC50 [3, 15] [M] | AC50 [3, 16] [M] | AC50 [4, 17] [M] | AC50 [5, 19] [M] | AC50 [6, 21] [M] | AC50 [7, 23] [M] | HepG2 AC50 (mammalian cellular toxicity) (HepG2 cells) | AC50 [4, 25] [M] | AC50 [5, 26] [M] | AC50 [6, 27] [M] | AC50 [7, 28] [M] | AC50 [9, 29] [µM] | solubility (Aqueous solubility) [µg/mL] | PAMPA pH7.4 [13] | half-life (in vitro [11]; rat liver microsomes) [min] | further results
1 | CNC(=O)Oc1cccc(-c2cn3cc(OC(=O)NC)ccc3n2)c1 [MLS000700241-01] |  |  |  |  |  |  |  |  |  |  |  |  |  |  |  | AC50 [1]: > 28 µM
2 | CC(C)(CN)c1nc(-c2ccc(Cl)c(O)c2)c(-c2ccncc2)[nH]1 [MMV030084] |  |  |  |  |  |  |  |  |  |  |  |  |  |  |  | IC50 ([2]; added 2 h post sporozoite addition): > 10 µM; IC50 ([2]; pre-treat hepatocytes 4 h prior to adding sporozoites): 0.199 µM
3 | COc1cc(Cc2cnc(N)nc2N)cc(OC)c1OC [NCGC00016055-05] |  |  |  |  |  |  |  |  |  |  |  |  |  |  |  | AC50 [1]: > 28 µM
4 | CC(=O)Nc1ccc(CN2CCc3nc(C(C)C)nc(-c4ccc(Cl)cc4)c3CC2)cc1 [NCGC00374598] | 1.58e-06 | 1.5e-06 | 3.47e-06 | 2.82e-06 | 2.09e-06 | 3.89e-07 | no apparent toxicity |  |  |  |  |  |  |  |  | AC50 ([3]; Plasmodium falciparum, DD2, Suppl Table 6, read-out: AC50 (mM), WT (Dd2-B2)): 1.51e-06 M; AC50 ([3]; SYBR Green 72 h, approximate value in μM, read-out: AC50 [μM], Dd2-B2 (parental line) (converted)): 1.51e-06 M; AC50 [4, 18]: 3.47e-06 M; AC50 [5, 20]: 2.82e-06 M; AC50 [6, 22]: 2.09e-06 M; AC50 [7, 24]: 3.89e-07 M; AC50 [8]: 0.71 µM; inhibition at 1 µM [8]: > 60%; inhibition at 3 µM [8]: > 90%; Max Resp (signal direction of the dose response) ([9]; Method 2, Decrease = decreasing P. berghei viability with dose, Increase = increasing signal, Inactive = no dose response): Inactive; AC50 ([9]; HepG2, mean, read-out: liver stage AC50 (Method 2)): 0.5 µM; AC50 (in vitro [10]): > 20 µM; half-life (in vitro [11]; microsomes): 4 min; Recrudescence under pressure [12]: 36 days; AC50 increase of selected clones [12]: threefold increase
5 | CCCN1C(CC(C)C)=NS(=O)(=O)c2cc(NC(=O)c3cccs3)ccc21 [NCGC00473217] | 2.19e-07 | 2.19e-07 | 6.76e-07 | 1.17e-06 | 2.82e-06 |  |  | 6.8e-07 | 1.18e-06 | 2.82e-06 | > 2.9e-05 | 0.112 | < 1 | 222 1e-6 cm/s | 5 | AC50 [4, 18]: 6.76e-07 M; AC50 [5, 20]: 1.17e-06 M; AC50 [6, 22]: 2.82e-06 M; AC50 [μM], Cytb F123L ([7]; NCGC00473217 selected clone G08, highest concentration 29 µM): greater than the maximum concentration tested; AC50 ([7]; NCGC00473217 selected clone G08, highest concentration 29 µM, read-out: AC50 [μM], Cytb F123L (converted)): > 2.9e-05 M; AC50 [7, 24]: > 2.9e-05 M; IC50 shift, F123L clone ([7]; versus parental): > 500 fold; AC50 [8]: 0.003 µM; inhibition at 1 µM [8]: > 90%; inhibition at 3 µM [8]: > 95%; Activity direction (Decrease / Inactive) ([9]; P. berghei liver stage, Method 2, dose response): Decrease; AC50 ([9]; HepG2, P. berghei liver stage, Method 2, dose response, read-out: Log AC50 (converted)): 0.112 µM; Recrudescence under pressure [12]: 14 to 17 days; AC50 increase of selected clones [12]: 10 to 60 fold; viability at 66 h (in vitro [14]): 106%
6 | CCCN1C(c2ccccc2)=NS(=O)(=O)c2cc(NC(=O)c3ccc(F)cc3)ccc21 [NCGC00532331] | 8.91e-07 | 8.94e-07 | 7.08e-07 | 2.34e-06 | 1.86e-06 | 3.31e-06 | Neither compound was cytotoxic | 7.1e-07 | 2.33e-06 | 1.85e-06 | 3.3e-06 | 0.048 | < 1 | 896 1e-6 cm/s | > 30 | AC50 [μM], Dd2-B2 (parental line) [3, 30]: sub-micromolar; AC50 [μM], Cytb G131S ([4]; NCGC00374598 selected clone C11): maintained potency; AC50 [9, 31]: < 0.05 µM; AC50 at 48 h (in vitro [10]): > 20 µM; Aqueous Solubility (Aqueous solubility): poor aqueous solubility; PAMPA permeability [13]: good PAMPA permeability; also recorded: favorable; RLMS T1/2 (in vitro [11]; rat liver microsomes): favorable
7 | CCCN1C(c2ccccc2)=NS(=O)(=O)c2cc(NC(=O)c3cccs3)ccc21 [NCGC00532332] | 5.89e-07 | 5.86e-07 | 8.51e-07 | 4.27e-06 | 1.51e-06 | 2e-06 | Neither compound was cytotoxic | 8.61e-07 | 4.31e-06 | 1.5e-06 | 2e-06 | 0.039 | < 1 | 714 1e-6 cm/s | 22.6 | AC50 [μM], Dd2-B2 (parental line) [3, 30]: sub-micromolar; AC50 [9, 31]: < 0.05 µM; AC50 at 48 h (in vitro [10]): > 20 µM; Aqueous Solubility (Aqueous solubility): poor aqueous solubility; PAMPA permeability [13]: high permeability; also recorded: favorable; RLMS T1/2 (in vitro [11]; rat liver microsomes): favorable

— publication PMC7822874, “Chemoprotective antimalarials identified through quantitative high-throughput screening of Plasmodium blood and liver stage parasites” (Scientific Reports, 2021)
